Results as given in PubChem BioAssay (NCI).
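Values below derive from 48-hour exposures of cells grown in 96-well plates, with endpoints linearly interpolated between the two concentrations bracketing the appropriate inhibition level. At the TGI there is no net growth.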

Key:
Test in all cases: NCI tumour cell line growth inhibition, 48 h
A498 renal = test system: A498 renal
ACHN renal = test system: ACHN renal
CAKI-1 renal = test system: CAKI-1 renal
HL-60(TB) leukemia = test system: HL-60(TB) leukemia
HOP-62 NSCLC = test system: HOP-62 NSCLC
HOP-92 NSCLC = test system: HOP-92 NSCLC
IGROV1 ovarian = test system: IGROV1 ovarian
KM20L2 colon = test system: KM20L2 colon
MOLT-4 leukemia = test system: MOLT-4 leukemia
OVCAR-5 ovarian = test system: OVCAR-5 ovarian
RPMI-8226 leukemia = test system: RPMI-8226 leukemia
SK-MEL-2 melanoma = test system: SK-MEL-2 melanoma
SK-OV-3 ovarian = test system: SK-OV-3 ovarian
SR leukemia = test system: SR leukemia
TK-10 renal = test system: TK-10 renal
UO-31 renal = test system: UO-31 renal

CCCCCC(=O)OC[n+]1ccc2c(C)c3[nH]c4ccccc4c3c(C)c2c1
TGI (A498 renal): 2.67 µM
TGI (ACHN renal): 11.1 µM
TGI (CAKI-1 renal): 7.75 µM
TGI (HL-60(TB) leukemia): > 100 µM
TGI (HOP-62 NSCLC): 4.14 µM
TGI (HOP-92 NSCLC): > 100 µM
TGI (IGROV1 ovarian): 38.6 µM
TGI (KM20L2 colon): 2.75 µM
TGI (MOLT-4 leukemia): 8.26 µM
TGI (OVCAR-5 ovarian): 2.75 µM
TGI (RPMI-8226 leukemia): 1.78 µM
TGI (SK-MEL-2 melanoma): 29.8 µM
TGI (SK-OV-3 ovarian): 5.13 µM
TGI (SR leukemia): 12 µM
TGI (TK-10 renal): 15.4 µM
TGI (UO-31 renal): 13 µM
